Test results reported in patent US4745101A, “Novel peptide having dentinal fluid transport-stimulating activity” (Teikoku Hormone Mfg. Co., Ltd., priority 1985, dated 1988).
Where no end group is shown, it is not given here.

Experiment: Solubility
Type: physicochemical
Excerpt: Soluble in water and physiological saline. Insoluble in acetone.

Solubility (in acetone): Insoluble | Solubility (in physiological saline): Soluble | Solubility (in water): Soluble
Sequence: GVIAWELQHNQPGRKDSTAG [Peptide of the invention]
